Experimental findings from ChEMBL document CHEMBL3507680, “University of Dundee, Gates Library screen for HepG2 cell viability” are described below.

Structures are written as SMILES.

A short description of this series: Human HepG2 cell viability assay in 384 well format. The series is classed as toxicity, cell-based. Set-up: dose 125 nL, time 70.5 hour; concentration not given beside the values. The following applies: HepG2 cells, read-out: Inhibition.
On to `CCCN(C(=O)c1csnn1)C1CCCN(Cc2ccccc2)C1` (configuration not stated), for which the cytotoxicity at 70.5 h was -5.57%.

Turning to `CC(C(=O)Nc1cccc(Cl)c1)N1CCN(Cc2ncc[nH]2)CC1` (configuration not stated), the cytotoxicity at 70.5 h was -10.6%.

Regarding `O=C(CCc1nc(C2CC2)no1)c1ccccc1`, the cytotoxicity at 70.5 h was -16%.

As to `CC(C)c1noc(CCNC(=O)N2CCC(O)(C(F)(F)F)C2)n1` (configuration not stated), the cytotoxicity at 70.5 h was -14.8%.

For the compound `Cc1ccccc1CNc1ccccc1OCC(=O)N1CCOCC1`, the cytotoxicity at 70.5 h is -3.34%.

Regarding `O=C(CCn1ccc2ccccc21)Nc1ccnn1CC1CCOC1` (configuration not stated), the cytotoxicity at 70.5 h is -16.3%.

Turning to `Cc1cc(C(N)=O)c2c(Br)cccc2n1`, the cytotoxicity at 70.5 h was -13.6%.

Regarding `O=C1NC(c2cnc(C3CCC3)s2)Nc2ncccc21` (configuration not stated), the cytotoxicity at 70.5 h is -26.5%.

Regarding `Cc1ccc(NCc2cc(C#N)ccc2F)cc1-n1nnnc1C`, the cytotoxicity at 70.5 h is -13.2%.

In the case of `CN(CCC(N)=O)Cc1cc(Br)cs1`, the cytotoxicity at 70.5 h was -19.7%.

For `COC(=O)CN(C)Cc1cc(Br)cs1`, the cytotoxicity at 70.5 h worked out at 38.2%.

In the case of `OC(COCc1ccccc1)CN1CCC(Cn2cccn2)CC1` (configuration not stated), the cytotoxicity at 70.5 h is -22.4%.

Take `CCCn1nnnc1COc1ccc(C(=O)OC)cc1`: the cytotoxicity at 70.5 h is -11.5%.

For the compound `CCN(C(=O)COC)C(c1ccc(Cl)cc1)c1ccccn1` (configuration not stated), the cytotoxicity at 70.5 h is -21.9%.

For `Clc1ccc(CNc2cnn(CCN3CCOCC3)c2)cc1Cl`, the cytotoxicity at 70.5 h is -19.4%.

As for `CS(=O)(=O)c1cccc(OCC(=O)N2CCCC2c2ccccc2Cl)c1` (configuration not stated), the cytotoxicity at 70.5 h was -2.69%.

With `CCCN(Cc1cnn(C)c1)CC1CCCN(S(C)(=O)=O)C1` (configuration not stated), the cytotoxicity at 70.5 h amounted to 23.4%.

Consider `CC(C)N(Cc1cnn(C)c1)CC1CCCN(S(C)(=O)=O)C1` (configuration not stated), for which the cytotoxicity at 70.5 h turned out to be 10.1%.

With `Cc1ccc(N2CCCC(N3CCC(N(C)C)CC3)C2=O)cc1` (configuration not stated), the cytotoxicity at 70.5 h worked out at 13.2%.

Turning to `Cc1ccc(NC(=O)CNc2ccn(CC(N)=O)n2)c(Cl)c1`, the cytotoxicity at 70.5 h was -7.52%.

Take `CC(C(=O)NCC1(c2cccc(Br)c2)CCC1)S(C)(=O)=O` (configuration not stated): the cytotoxicity at 70.5 h came to 7%.

For the compound `CC(=O)N1CCN(C(=O)CNc2ccc3sccc3c2)CC1`, the cytotoxicity at 70.5 h was -4.15%.

`CC(=O)N1CCN(C(=O)CNc2ccc3ncsc3c2)CC1`: the cytotoxicity at 70.5 h is -5.1%.

Consider `O=C(NCCOCC1CC1)Nc1ccc(F)cc1`, for which the cytotoxicity at 70.5 h is -9.49%.

Consider `CC(=O)c1ccc(Cl)c(Cl)c1OCC(=O)NC(N)=O`, for which the cytotoxicity at 70.5 h came out at 14.2%.

As to `CC(=O)c1ccc(Cl)c(Cl)c1OCC(=O)NCC(F)(F)F`, the cytotoxicity at 70.5 h is -8.87%.

As to `Nc1cc2c(nn1)CCN(C(=O)c1cccnc1Oc1ccccc1)C2`, the cytotoxicity at 70.5 h is -8.86%.

For `CC(C)OCc1cccc(NC(=O)N2CCCC(CCC(N)=O)C2)c1` (configuration not stated), the cytotoxicity at 70.5 h is 6.13%.

With `CN(C)C1(CNC(=O)Cc2ccc(F)cc2)CCOCC1`, the cytotoxicity at 70.5 h is -5.15%.

Take `Nc1cc2c(nn1)CCN(C(=O)c1ccc(Oc3cccnc3)cc1)C2`: the cytotoxicity at 70.5 h was -9.26%.

As for `CN(C)C1(CNC(=O)C2CCCN2Cc2ccc(F)cc2)CCOCC1` (configuration not stated), the cytotoxicity at 70.5 h was 6.73%.

On to `COC(=O)C1CCN(C(=O)Nc2cc(-n3cccc3)ccc2F)CC1`, for which the cytotoxicity at 70.5 h is -6.77%.

As for `CC(C)NC(=O)CS(=O)(=O)c1cc2c(cc1Cl)OCCO2`, the cytotoxicity at 70.5 h is -3.28%.

`Cn1cc(CNc2cnn(CCO)c2)c(-c2ccncc2)n1`: the cytotoxicity at 70.5 h is -5.07%.

Turning to `Cc1ccc(N2CCCC(N3CCC4(CC3)OCCO4)C2=O)cc1` (configuration not stated), the cytotoxicity at 70.5 h was -7.88%.

As for `O=C(Nc1cc(-n2cccc2)ccc1F)N1CCCC1`, the cytotoxicity at 70.5 h is -11.7%.

As to `NC(=O)N1CCCN(C(=O)Nc2cc(-n3cccc3)ccc2F)CC1`, the cytotoxicity at 70.5 h was -6.12%.

Take `CN(CC1CCCN(S(C)(=O)=O)C1)c1cnn(C)c1` (configuration not stated): the cytotoxicity at 70.5 h was determined as 18.9%.

As to `COc1cncc(N2CCN(Cc3cccn3C)CC2)n1`, the cytotoxicity at 70.5 h worked out at 3.9%.

For the compound `CCOc1cccnc1C(=O)N1CCC(c2ccccc2OC)C1` (configuration not stated), the cytotoxicity at 70.5 h is -8.54%.

On to `COc1ccccc1C1CCN(C(=O)c2ncccc2OC(C)C)C1` (configuration not stated), for which the cytotoxicity at 70.5 h is -1.72%.

On to `COc1cc(CNC2CCN(c3ccccc3)C2)cc(OC)c1OC` (configuration not stated), for which the cytotoxicity at 70.5 h was -6.84%.

Regarding `COCCn1cc(NCc2cn(C)nc2-c2ccncc2)cn1`, the cytotoxicity at 70.5 h stood at 21.2%.

`CCN(Cc1cnn(C)c1)C(=O)c1ccccc1O`: the cytotoxicity at 70.5 h was -6.92%.

On to `N#Cc1cnn(CCN2CCOC(CNc3cccnn3)C2)c1` (configuration not stated), for which the cytotoxicity at 70.5 h amounted to 4.89%.

`c1cnnc(NCC2CN(CCn3cncn3)CCO2)c1` (configuration not stated): the cytotoxicity at 70.5 h came to 11.7%.

In the case of `O=C(c1ccc(O)nc1)N1CCN(C(=O)c2ccc(F)c(F)c2)CC1`, the cytotoxicity at 70.5 h is -2.92%.

On to `CN(Cc1cccc(F)c1)C(=O)CS(=O)(=O)Cc1c(Cl)cccc1Cl`, for which the cytotoxicity at 70.5 h was 5.76%.

`COc1ccc(C2CCCCCN2Cc2nnc(C)o2)cc1` (configuration not stated): the cytotoxicity at 70.5 h is -3.01%.

For the compound `COc1ccccc1N1CCC(CNS(=O)(=O)c2c(C)nn(C)c2C)C1` (configuration not stated), the cytotoxicity at 70.5 h stood at 2.25%.

With `Cc1nc(C)c(CC(=O)N2CCC(Oc3ccccc3)CC2)c(=O)[nH]1`, the cytotoxicity at 70.5 h was -7.9%.

Take `CC(C)c1nn(C)c(N(C)C)c1CNC1CCC(O)CC1` (configuration not stated): the cytotoxicity at 70.5 h is -6.96%.

As to `O=C(COC1CCCC1)NC(C(=O)Nc1cc[nH]n1)c1ccccc1` (configuration not stated), the cytotoxicity at 70.5 h was 3.78%.

As to `c1cc(CN2CCN(Cc3ccon3)C3(CCCCC3)C2)no1`, the cytotoxicity at 70.5 h is 4.47%.

Turning to `O=C(NCCC1Cc2ccccc2C1)N1CCCC(O)C1` (configuration not stated), the cytotoxicity at 70.5 h is 26.4%.

For the compound `CN(C)c1cccc(C2CCCN2CCCN2CCOC2=O)c1` (configuration not stated), the cytotoxicity at 70.5 h came to 7.84%.

As for `COc1cc(C)c(CNC(C)c2nc(C)cs2)cc1OC` (configuration not stated), the cytotoxicity at 70.5 h was -2.23%.

Consider `CC(c1ccccc1Cl)N1CCN(C(=O)c2ccc(=O)[nH]c2)CC1` (configuration not stated), for which the cytotoxicity at 70.5 h is 2%.

Take `CCN(C)CC1CCN(C(=O)NCCC2Cc3ccccc3C2)C1` (configuration not stated): the cytotoxicity at 70.5 h is -6.72%.

Take `Cc1nnc(CN2CCCC2c2ccc(C(C)(C)C)cc2)o1` (configuration not stated): the cytotoxicity at 70.5 h is -3.63%.

With `Cc1nnc(CN2CCCC2c2ccsc2)o1` (configuration not stated), the cytotoxicity at 70.5 h was -4.6%.

Consider `N#Cc1cc(Cl)ccc1N1CCN(C(=O)C2CCC2)CC1`, for which the cytotoxicity at 70.5 h is -1.06%.

As to `CNC(=O)c1cccc(NC(=O)CN2CCCN(S(C)(=O)=O)CC2)c1`, the cytotoxicity at 70.5 h was -5.6%.

`CC(C)(NC(=O)c1ccc(-c2ccc(F)cc2)s1)C(N)=O`: the cytotoxicity at 70.5 h worked out at 4.62%.

As for `CCOCCCC(=O)Nc1cccnc1-n1ccnc1C`, the cytotoxicity at 70.5 h was -6.87%.

For `O=C(NCc1ccccc1F)N1CCC(C2OCCO2)CC1`, the cytotoxicity at 70.5 h is -7.09%.

With `COc1ccc(CC(=O)N2CCCN(c3ccc(C#N)cc3)CC2)cc1`, the cytotoxicity at 70.5 h was -2.17%.

In the case of `COc1cccc(N2CCN(CCC(=O)NC3CCCC3)CC2)c1`, the cytotoxicity at 70.5 h is -5.97%.

Regarding `Cc1nc(CC(=O)N2CCCN(c3ccc(C#N)cc3)CC2)cs1`, the cytotoxicity at 70.5 h was -8.68%.

Consider `Cc1noc(C(C)C)c1C(=O)NS(=O)(=O)c1ccc(Cl)cc1`, for which the cytotoxicity at 70.5 h is -3.31%.

As for `CN(C(=O)Cc1ccc(NC(=O)NC2CCC2)cc1)c1ccccc1`, the cytotoxicity at 70.5 h was found to be 38.2%.

`CC(C)(O)CN1CCN(C(=O)c2cc3ccccc3c(=O)[nH]2)CC1`: the cytotoxicity at 70.5 h was -3.18%.

For the compound `CCc1nccn1C1CCCN(C(=O)c2cn3c(C)cccc3n2)C1` (configuration not stated), the cytotoxicity at 70.5 h is -3.89%.

Turning to `O=C(Cc1ccc2c(c1)CCO2)N1CCCCC1Cn1cccn1` (configuration not stated), the cytotoxicity at 70.5 h is -2.84%.

For `COCCN(C)C(=O)Nc1ccc2c(ccn2CCOC)c1`, the cytotoxicity at 70.5 h is 32.1%.

On to `CCCn1ccc2ccc(NC(=O)N(C)CCOC)cc21`, for which the cytotoxicity at 70.5 h was -1.44%.

`CC(=O)NC(C)c1ccc(OCC2CC2)c(F)c1` (configuration not stated): the cytotoxicity at 70.5 h was -6.57%.

As to `COCC(=O)N(C)Cc1ccc(Cl)c(Cl)c1`, the cytotoxicity at 70.5 h is -12.6%.

Consider `COCCn1ccc(NC(=O)Nc2cccnc2)n1`, for which the cytotoxicity at 70.5 h was -2.62%.

`COc1ccc(CC(=O)N2CCCCC2Cn2cccn2)cc1OC` (configuration not stated): the cytotoxicity at 70.5 h is -2.2%.

`CN(Cc1nccn1CC(F)(F)F)C(=O)c1cccc(C#N)c1`: the cytotoxicity at 70.5 h is -7.89%.

For `Cc1noc(C(C)C)c1C(=O)NS(=O)(=O)c1ccc2c(c1)OCCCO2`, the cytotoxicity at 70.5 h is -9.35%.

With `Cc1noc(Cl)c1CCC(=O)N1CCCCC1Cn1cccn1` (configuration not stated), the cytotoxicity at 70.5 h is 1.4%.

Consider `Cc1cnn(C2CCCN(C(=O)c3cc(C)sc3C)C2)c1` (configuration not stated), for which the cytotoxicity at 70.5 h was -2.62%.

Turning to `Cc1cc(C)n(CCCNC(=O)C(C)NC(=O)c2ccccc2Cl)n1` (configuration not stated), the cytotoxicity at 70.5 h is -8.83%.

`CN(Cc1cnn(C)c1)C(=O)Cn1c(CS(C)(=O)=O)nc2ccccc21`: the cytotoxicity at 70.5 h was -12.9%.

Take `CCc1noc(C(C)N2CCN(c3ccc(C#N)cn3)CC2)n1` (configuration not stated): the cytotoxicity at 70.5 h is -2.7%.

`Cc1nc(C2(NCC(=O)NCCc3cccs3)CCCC2)no1`: the cytotoxicity at 70.5 h was -9.55%.

With `Cc1cc(C)n(CC(C)CNC(=O)[C@@H](C)NC(=O)OC(C)(C)C)n1` (some centres not stated), the cytotoxicity at 70.5 h is -27.5%.

`COc1ccc(CCN2CCN(C(=O)c3scnc3C)CC2)cc1`: the cytotoxicity at 70.5 h is -5.8%.

With `O=C(NCCCNC(=O)c1cccc(O)c1)Nc1ccc(F)cc1F`, the cytotoxicity at 70.5 h was -2.92%.

In the case of `CCOCCCC(=O)NCCC(=O)N1CCN(c2ccccn2)CC1`, the cytotoxicity at 70.5 h was -13.4%.

For `Cc1noc(C(C)N2CCN(CCC(=O)N3CCCCC3)CC2)n1` (configuration not stated), the cytotoxicity at 70.5 h is -8.82%.

For `CCc1nc(CC(=O)NCC(Cc2ccc(F)cc2)C(N)=O)cs1` (configuration not stated), the cytotoxicity at 70.5 h is 29.6%.

As to `Cc1cc(C)n(CCCNC(=O)[C@@H](C)NC(=O)OC(C)(C)C)n1`, the cytotoxicity at 70.5 h was -14.4%.

In the case of `CC(C)Cc1cc(C(=O)NCCc2ccc(S(C)(=O)=O)cc2)[nH]n1`, the cytotoxicity at 70.5 h is -7.03%.

In the case of `CC(C)(C)c1n[nH]c(C2CN(C(=O)c3csnn3)CCO2)n1` (configuration not stated), the cytotoxicity at 70.5 h stood at 22.6%.

On to `CC(c1nc(C(C)(C)C)no1)N1CCN(CC(=O)N2CCOCC2)CC1` (configuration not stated), for which the cytotoxicity at 70.5 h is -16.5%.

Regarding `CCOCCCNC(=O)c1ccccc1S(C)(=O)=O`, the cytotoxicity at 70.5 h was -15.5%.

Turning to `Cc1cccc(CC(=O)N2CCCCC2CN)c1` (configuration not stated), the cytotoxicity at 70.5 h is -3.78%.

As to `NCC1CCCCN1C(=O)Cc1ccc(F)c(F)c1` (configuration not stated), the cytotoxicity at 70.5 h is -9.5%.

For the compound `Cc1nn(C)c(Cl)c1CNCc1cccnc1N1CCN(C)CC1`, the cytotoxicity at 70.5 h is 2.87%.
